System: Sec(GLP1TM4-5)R
Assay: cAMP response
Type: cell-based, human
Details: COS cells, LANCE, basal 2.1±0.5

Compound: CC(C)C[C@H](NC(=O)CNC(=O)[C@H](CCC(N)=O)NC(=O)[C@H](CC(C)C)NC(=O)[C@H](CC(C)C)NC(=O)[C@H](CCCNC(=N)N)NC(=O)[C@H](CCC(N)=O)NC(=O)[C@H](CC(C)C)NC(=O)[C@H](CCCNC(=N)N)NC(=O)[C@H](C)NC(=O)CNC(=O)[C@H](CCC(=O)O)NC(=O)[C@H](CCCNC(=N)N)NC(=O)[C@H](CC(C)C)NC(=O)[C@H](CCCNC(=N)N)NC(=O)[C@H](CO)NC(=O)[C@H](CC(C)C)NC(=O)[C@H](CCC(=O)O)NC(=O)[C@H](CO)NC(=O)[C@@H](NC(=O)[C@H](Cc1ccccc1)NC(=O)[C@@H](NC(=O)CNC(=O)[C@H](CC(=O)O)NC(=O)[C@H](CO)NC(=O)[C@@H](N)Cc1c[nH]cn1)[C@@H](C)O)[C@@H](C)O)C(=O)N[C@H](C(N)=O)C(C)C [secretin]
- maximal cAMP level (Emax): 149±15 picomoles per million cells
